Columns and labels:
[1] = target: T1, Aurora kinase A (Homo sapiens) (UniProt O14965)
T1 sequence (whole entry): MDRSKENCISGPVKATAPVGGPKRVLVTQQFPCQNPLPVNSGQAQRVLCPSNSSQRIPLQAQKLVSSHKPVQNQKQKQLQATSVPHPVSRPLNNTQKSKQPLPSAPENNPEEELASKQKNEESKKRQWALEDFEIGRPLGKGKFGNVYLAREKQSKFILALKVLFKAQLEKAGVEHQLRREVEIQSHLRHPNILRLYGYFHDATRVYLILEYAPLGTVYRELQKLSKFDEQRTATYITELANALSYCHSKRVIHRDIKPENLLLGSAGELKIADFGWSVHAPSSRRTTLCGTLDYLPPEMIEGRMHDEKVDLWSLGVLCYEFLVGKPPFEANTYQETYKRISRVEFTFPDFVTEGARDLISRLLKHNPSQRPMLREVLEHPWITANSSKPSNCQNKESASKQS

[2] = target: Non-receptor tyrosine-protein kinase TYK2 (Homo sapiens) (UniProt P29597)
[3] = target: Ribosomal protein S6 kinase alpha-5 (Homo sapiens) (UniProt O75582)
[4] = target: Sodium-dependent serotonin transporter (Homo sapiens) (UniProt P31645); details: Compound concentration 10.0 uM
[5] = target: Mitotic checkpoint serine/threonine-protein kinase BUB1 (Homo sapiens) (UniProt O43683)
[6] = target: Death-associated protein kinase 3 (Homo sapiens) (UniProt O43293)
[7] = target: 5'-AMP-activated protein kinase catalytic subunit alpha-1 (Homo sapiens) (UniProt Q13131)
[8] = target: 5-hydroxytryptamine receptor 1D (Homo sapiens) (UniProt P28221); details: Compound concentration 10.0 uM
[9] = target: Myosin-IIIa (Homo sapiens) (UniProt Q8NEV4)
[10] = target: Ribosomal protein S6 kinase alpha-6 (Homo sapiens) (UniProt Q9UK32)
[11] = target: Ephrin type-A receptor 6 (Homo sapiens) (UniProt Q9UF33)
[12] = target: STE20-like serine/threonine-protein kinase (Homo sapiens) (UniProt Q9H2G2)
[13] = target: Maternal embryonic leucine zipper kinase (Homo sapiens) (UniProt Q14680)
[14] = target: Receptor tyrosine-protein kinase erbB-4 (Homo sapiens) (UniProt Q15303)
[15] = target: Receptor-interacting serine/threonine-protein kinase 4 (Homo sapiens) (UniProt P57078)
[16] = test system: Tyrosine-protein kinase ABL1 (Homo sapiens), P00519 [T315I]
[17] = target: Ribosomal protein S6 kinase alpha-2 (Homo sapiens) (UniProt Q15349)
[18] = target: Ribosomal protein S6 kinase alpha-3 (Homo sapiens) (UniProt P51812)
[19] = target: Serine/threonine-protein kinase VRK2 (Homo sapiens) (UniProt Q86Y07)
[20] = target: NT-3 growth factor receptor (Homo sapiens) (UniProt Q16288)
[21] = target: Mitogen-activated protein kinase 15 (Homo sapiens) (UniProt Q8TD08)
[22] = test system: Phosphatidylinositol 4,5-bisphosphate 3-kinase catalytic subunit alpha isoform (Homo sapiens), P42336 [E545A]
[23] = test system: Epidermal growth factor receptor (Homo sapiens), P00533 [UNDEFINED MUTATION]
[24] = target: LIM domain kinase 1 (Homo sapiens) (UniProt P53667)
[25] = target: Calcium/calmodulin-dependent protein kinase kinase 1 (Homo sapiens) (UniProt Q8N5S9)
[26] = test system: Tyrosine-protein kinase ABL1 (Homo sapiens), P00519 [Y253F]
[27] = target: Cyclin-dependent kinase 15 (Homo sapiens) (UniProt Q96Q40)
[28] = target: Casein kinase I isoform gamma-2 (Homo sapiens) (UniProt P78368)
[29] = Compound concentration 1000.0 nM
[30] = Compound concentration 100.0 nM

Sequence of Maternal embryonic leucine zipper kinase (Homo sapiens) (Q14680 whole entry, looked up): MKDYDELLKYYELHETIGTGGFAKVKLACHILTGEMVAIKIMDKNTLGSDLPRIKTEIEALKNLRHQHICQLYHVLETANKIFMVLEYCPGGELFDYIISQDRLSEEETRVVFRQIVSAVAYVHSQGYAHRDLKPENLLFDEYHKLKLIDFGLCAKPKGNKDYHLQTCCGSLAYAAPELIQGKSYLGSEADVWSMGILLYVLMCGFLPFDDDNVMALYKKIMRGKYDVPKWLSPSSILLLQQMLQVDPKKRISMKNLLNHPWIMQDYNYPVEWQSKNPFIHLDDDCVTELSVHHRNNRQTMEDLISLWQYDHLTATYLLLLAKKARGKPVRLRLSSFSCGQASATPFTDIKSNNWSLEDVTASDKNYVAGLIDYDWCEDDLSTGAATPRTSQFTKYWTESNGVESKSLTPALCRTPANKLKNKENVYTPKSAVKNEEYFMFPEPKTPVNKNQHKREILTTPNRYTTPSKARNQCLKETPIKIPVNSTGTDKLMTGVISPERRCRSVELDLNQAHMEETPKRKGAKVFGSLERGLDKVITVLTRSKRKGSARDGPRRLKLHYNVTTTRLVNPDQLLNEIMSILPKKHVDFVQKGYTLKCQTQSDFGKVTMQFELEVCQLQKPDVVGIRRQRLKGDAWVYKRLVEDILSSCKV
Sequence of Mitotic checkpoint serine/threonine-protein kinase BUB1 (Homo sapiens) (O43683 whole entry, looked up): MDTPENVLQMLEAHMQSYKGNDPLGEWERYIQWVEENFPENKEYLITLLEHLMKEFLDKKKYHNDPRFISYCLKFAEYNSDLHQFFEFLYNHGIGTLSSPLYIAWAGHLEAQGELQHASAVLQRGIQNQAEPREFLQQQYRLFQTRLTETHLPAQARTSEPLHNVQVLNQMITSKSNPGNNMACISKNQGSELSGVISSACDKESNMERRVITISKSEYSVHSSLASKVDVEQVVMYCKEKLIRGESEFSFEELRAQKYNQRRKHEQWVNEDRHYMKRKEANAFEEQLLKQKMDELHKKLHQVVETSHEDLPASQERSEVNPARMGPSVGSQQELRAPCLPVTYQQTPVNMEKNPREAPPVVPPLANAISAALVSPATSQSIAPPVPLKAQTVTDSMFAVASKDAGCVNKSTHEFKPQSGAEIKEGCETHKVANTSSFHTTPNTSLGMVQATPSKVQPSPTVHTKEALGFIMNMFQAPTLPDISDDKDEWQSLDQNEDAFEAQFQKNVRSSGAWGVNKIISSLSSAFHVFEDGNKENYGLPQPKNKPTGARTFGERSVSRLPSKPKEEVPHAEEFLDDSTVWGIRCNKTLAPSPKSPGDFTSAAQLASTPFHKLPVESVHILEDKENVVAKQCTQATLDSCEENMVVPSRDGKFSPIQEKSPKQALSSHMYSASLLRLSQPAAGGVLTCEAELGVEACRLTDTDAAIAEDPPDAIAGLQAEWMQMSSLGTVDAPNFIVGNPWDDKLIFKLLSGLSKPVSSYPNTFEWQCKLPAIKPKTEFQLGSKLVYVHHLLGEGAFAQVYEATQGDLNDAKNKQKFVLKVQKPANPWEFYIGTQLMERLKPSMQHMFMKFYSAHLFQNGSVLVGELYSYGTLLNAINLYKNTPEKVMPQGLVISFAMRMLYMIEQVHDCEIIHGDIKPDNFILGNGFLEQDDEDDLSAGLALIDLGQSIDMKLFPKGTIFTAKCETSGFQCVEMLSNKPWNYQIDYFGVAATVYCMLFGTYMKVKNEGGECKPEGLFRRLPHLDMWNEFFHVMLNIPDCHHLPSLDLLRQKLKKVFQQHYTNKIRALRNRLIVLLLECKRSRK
Sequence of Epidermal growth factor receptor (Homo sapiens), P00533 [UNDEFINED MUTATION] (P00533 whole entry, looked up, change not shown, the tested form may be a part): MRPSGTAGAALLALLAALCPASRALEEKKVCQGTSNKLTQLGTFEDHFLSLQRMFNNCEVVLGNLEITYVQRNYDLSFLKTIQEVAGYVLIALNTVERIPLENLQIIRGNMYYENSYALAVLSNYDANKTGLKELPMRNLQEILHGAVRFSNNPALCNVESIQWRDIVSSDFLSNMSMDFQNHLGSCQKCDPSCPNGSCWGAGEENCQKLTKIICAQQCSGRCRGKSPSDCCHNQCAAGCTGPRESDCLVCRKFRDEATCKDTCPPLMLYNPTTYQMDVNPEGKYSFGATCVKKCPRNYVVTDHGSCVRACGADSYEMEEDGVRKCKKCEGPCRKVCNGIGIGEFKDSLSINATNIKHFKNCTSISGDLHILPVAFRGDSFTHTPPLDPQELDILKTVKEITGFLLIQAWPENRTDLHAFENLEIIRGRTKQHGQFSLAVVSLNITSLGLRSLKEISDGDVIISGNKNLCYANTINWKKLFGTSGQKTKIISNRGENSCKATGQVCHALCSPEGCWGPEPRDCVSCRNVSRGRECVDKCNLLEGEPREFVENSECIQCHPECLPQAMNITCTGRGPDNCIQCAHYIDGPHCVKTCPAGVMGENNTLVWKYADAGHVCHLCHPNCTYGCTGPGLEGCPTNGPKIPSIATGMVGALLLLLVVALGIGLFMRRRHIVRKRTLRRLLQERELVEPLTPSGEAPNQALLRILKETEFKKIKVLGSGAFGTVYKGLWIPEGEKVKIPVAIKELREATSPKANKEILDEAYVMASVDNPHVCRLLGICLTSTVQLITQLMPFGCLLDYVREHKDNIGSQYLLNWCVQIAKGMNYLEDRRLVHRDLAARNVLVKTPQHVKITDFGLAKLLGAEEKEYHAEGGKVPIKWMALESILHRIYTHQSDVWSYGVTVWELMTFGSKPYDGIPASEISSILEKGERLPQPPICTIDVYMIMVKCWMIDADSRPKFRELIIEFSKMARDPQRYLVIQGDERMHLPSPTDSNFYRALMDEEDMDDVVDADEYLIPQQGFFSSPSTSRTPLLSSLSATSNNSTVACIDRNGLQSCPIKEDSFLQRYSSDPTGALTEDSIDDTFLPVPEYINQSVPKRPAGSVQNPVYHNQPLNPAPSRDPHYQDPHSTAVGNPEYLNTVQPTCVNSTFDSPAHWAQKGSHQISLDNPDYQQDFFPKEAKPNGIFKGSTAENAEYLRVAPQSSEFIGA
Sequence of Ribosomal protein S6 kinase alpha-5 (Homo sapiens) (O75582 whole entry, looked up): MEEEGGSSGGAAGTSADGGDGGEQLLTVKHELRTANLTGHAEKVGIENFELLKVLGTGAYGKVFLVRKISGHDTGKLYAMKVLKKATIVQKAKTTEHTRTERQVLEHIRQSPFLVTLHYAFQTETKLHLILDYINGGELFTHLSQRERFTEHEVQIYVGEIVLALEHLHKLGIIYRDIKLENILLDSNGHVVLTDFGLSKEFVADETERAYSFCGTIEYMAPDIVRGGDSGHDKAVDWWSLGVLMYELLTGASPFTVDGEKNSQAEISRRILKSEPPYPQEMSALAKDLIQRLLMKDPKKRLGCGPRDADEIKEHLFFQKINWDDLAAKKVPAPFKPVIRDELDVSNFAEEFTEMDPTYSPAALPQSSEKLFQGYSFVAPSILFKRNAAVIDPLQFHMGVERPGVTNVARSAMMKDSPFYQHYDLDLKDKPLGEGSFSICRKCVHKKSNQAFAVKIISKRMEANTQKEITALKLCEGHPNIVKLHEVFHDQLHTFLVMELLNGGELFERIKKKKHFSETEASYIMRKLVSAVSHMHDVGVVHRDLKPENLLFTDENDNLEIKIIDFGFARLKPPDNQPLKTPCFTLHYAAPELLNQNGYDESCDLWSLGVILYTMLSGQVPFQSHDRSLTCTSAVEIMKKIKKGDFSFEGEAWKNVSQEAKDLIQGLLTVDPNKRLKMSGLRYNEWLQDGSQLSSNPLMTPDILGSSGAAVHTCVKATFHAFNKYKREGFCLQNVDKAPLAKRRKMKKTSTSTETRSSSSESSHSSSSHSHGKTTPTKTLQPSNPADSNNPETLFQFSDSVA
Sequence of Non-receptor tyrosine-protein kinase TYK2 (Homo sapiens) (P29597 whole entry): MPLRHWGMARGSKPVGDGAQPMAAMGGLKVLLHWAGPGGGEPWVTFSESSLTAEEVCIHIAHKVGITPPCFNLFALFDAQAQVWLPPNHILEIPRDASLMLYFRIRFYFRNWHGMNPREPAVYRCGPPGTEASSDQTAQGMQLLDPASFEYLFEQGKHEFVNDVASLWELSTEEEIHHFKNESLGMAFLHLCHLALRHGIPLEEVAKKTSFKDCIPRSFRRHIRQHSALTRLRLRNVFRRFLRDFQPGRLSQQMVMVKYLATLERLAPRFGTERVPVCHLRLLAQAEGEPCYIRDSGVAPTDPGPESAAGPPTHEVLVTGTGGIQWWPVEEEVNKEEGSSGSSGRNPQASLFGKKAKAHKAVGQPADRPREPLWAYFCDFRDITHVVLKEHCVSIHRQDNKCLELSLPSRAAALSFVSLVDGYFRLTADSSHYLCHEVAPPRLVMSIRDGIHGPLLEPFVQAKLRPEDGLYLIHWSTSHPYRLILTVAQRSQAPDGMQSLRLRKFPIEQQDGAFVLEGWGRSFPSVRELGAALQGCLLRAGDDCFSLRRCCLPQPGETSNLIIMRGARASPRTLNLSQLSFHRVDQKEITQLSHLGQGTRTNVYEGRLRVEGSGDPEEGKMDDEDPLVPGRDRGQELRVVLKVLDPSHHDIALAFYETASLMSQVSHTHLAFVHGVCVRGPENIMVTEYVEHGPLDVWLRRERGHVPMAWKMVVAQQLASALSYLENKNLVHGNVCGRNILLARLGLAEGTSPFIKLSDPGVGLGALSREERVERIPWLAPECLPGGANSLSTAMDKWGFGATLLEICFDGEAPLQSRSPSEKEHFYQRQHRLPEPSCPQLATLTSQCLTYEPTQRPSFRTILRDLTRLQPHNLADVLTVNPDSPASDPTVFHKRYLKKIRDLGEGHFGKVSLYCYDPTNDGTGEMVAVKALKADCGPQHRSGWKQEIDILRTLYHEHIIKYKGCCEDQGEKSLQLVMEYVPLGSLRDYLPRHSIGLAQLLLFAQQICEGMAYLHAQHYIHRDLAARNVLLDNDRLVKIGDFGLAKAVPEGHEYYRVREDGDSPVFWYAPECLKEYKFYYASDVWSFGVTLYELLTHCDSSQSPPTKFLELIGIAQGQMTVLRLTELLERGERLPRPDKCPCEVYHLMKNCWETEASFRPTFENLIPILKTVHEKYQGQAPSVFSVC

C[C@@H]1CN(c2cc(-c3nn(C)c4ccc(OC5(C)CC5)cc34)ncn2)C[C@H](C)O1 [MLi-2-NC]
inactive: residual activity [1, 29] 100% | residual activity [2, 29] 82% | residual activity [3, 29] 79% | inhibition [4] -3.49% | residual activity [5, 29] 89% | residual activity [6, 29] 89% | residual activity [7, 29] 93% | inhibition [8] 4.11% | residual activity [9, 29] 100% | residual activity [10, 29] 79% | residual activity [11, 29] 100% | residual activity [12, 29] 100% | residual activity [13, 29] 55% | residual activity [14, 29] 96% | residual activity [15, 29] 85% | residual activity [16, 29] 73% | residual activity [17, 29] 88% | residual activity [18, 29] 82% | residual activity [19, 29] 73% | residual activity [20, 29] 65% | residual activity [21, 29] 72% | residual activity [22, 29] 100% | residual activity [23, 29] 74% | residual activity [24, 29] 95% | residual activity [25, 29] 80% | residual activity [26, 29] 80% | residual activity [27, 29] 84% | residual activity [28, 29] 100%

C[C@@H]1CN(c2cc(-c3n[nH]c4ccc(OC5(C)CC5)cc34)ncn2)C[C@H](C)O1 [MLi-2]
inactive: residual activity [1, 30] 94% | residual activity [2, 30] 76% | residual activity [3, 30] 89% | inhibition [4] -2.29% | residual activity [5, 30] 84% | residual activity [6, 30] 96% | residual activity [7, 30] 86% | inhibition [8] -7.94% | residual activity [9, 30] 100% | residual activity [10, 30] 85% | residual activity [11, 30] 90% | residual activity [12, 30] 98% | residual activity [13, 30] 88% | residual activity [14, 30] 90% | residual activity [16, 30] 72% | residual activity [17, 30] 92% | residual activity [18, 30] 73% | residual activity [19, 30] 65% | residual activity [20, 30] 86% | residual activity [21, 30] 81% | residual activity [22, 30] 76% | residual activity [24, 30] 86% | residual activity [25, 30] 100% | residual activity [26, 30] 66% | residual activity [27, 30] 100% | residual activity [28, 30] 100%
active: residual activity [15, 30] 48% | residual activity [23, 30] 43%

Reference: ChEMBL document CHEMBL4507291 (2021)
